From US20230220346A1, “BIOLOGICALLY SYNTHESIZED HYDROXYAPATITE FOR BONE REGENERATION AND TISSUE ENGINEERING” (BIOVENTURES, LLC, priority 2019, published 2023)

What was measured:
[1] = test system: MG-63 and Saos-2 cell lines; assay: Alizarin Red S biomineralization assay: phosphate source comparison, titration, ascorbic acid (FIG. 1A, 1C, 1E-G); format: cell-based, human; conditions: for dose dependence of biomineralization (titration assays): FIG. 1E-G; for biomineralization with the substance as organic phosphate source: substituted for βGP, 2 mM, with ALP, FIG. 1B,C
Experimental: (§1) Biomineralization assays and Alizarin Red S staining: All human and mouse cell lines and human peripheral blood mononuclear cells (MNCs) were maintained in MEMα/10% FBS with penicillin/streptomycin and glutamine in a 37° C. humidified incubator with 5% CO2. […] The medium was replaced after 4 days. Alizarin Red S staining was performed at room temperature by removing the culture medium, washing the cells twice with 1×PBS (pH 7.4), fixing the cells in 10% neutral buffered formalin (Richard-Allan Scientific, Kalamazoo, Mich., USA) for 30 min, rinsing twice with Milli-Q water, staining with Alizarin Red S for 30 min, and destaining twice in Milli-Q water. A ZEISS inverted fluorescence/brightfield microscope equipped with an Infinity 3 digital camera and software system was used for imaging.

[2] = test system: human blood mononuclear cells (MNCs); assay: Alizarin Red S biomineralization assay in human blood mononuclear cells; format: cell-based; conditions: MEMα/10% FBS with αGP alone or CIP alone (the other missing), 7 days
Experimental: as §1
Coating cell culture plate with Collagen Type I, rat tail for mineralization assays: To coat a 48-well plate with Collagen Type I at 5 μg/cm^2, the stock solution was diluted to 25 μg/mL in 17.5 mM of acetic acid and aliquoted […] into each well. After incubating at room temperature for one hour, the Collagen Type I solution was removed. Each well was rinsed with 1×PBS (pH 7.4) and air-dried at room temperature. Human blood MNCs were suspended in the conditioned media and distributed into each well (1×10^5 cell/well) prior to a 7-day incubation. […]

[3] = test system: Saos-2 cell line; assay: Alizarin Red S (ARS) biomineralization assay in Saos-2; format: cell-based, human; conditions: for biomineralization (Alizarin Red S staining): MEMα/10% FBS plus the supplement only, no ALP added, 7 days
Experimental: as §1

[4] = test system: MG-63 cell line; assay: Alizarin Red S (ARS) biomineralization assay in MG-63; format: cell-based, human; conditions: MEMα/10% FBS plus the supplement only, no ALP added, 7 days
Experimental: as §1

Row | SMILES | dose dependence of biomineralization (titration assays) [1] | biomineralization (Alizarin Red S staining) [3] | biomineralization (Alizarin Red S staining) [4] | biomineralization with the substance as organic phosphate source [1] | other results
1 | O.O=P([O-])([O-])OCC(O)CO.[Na+].[Na+] (stereo not drawn) [αGP, Disodium α-glycerophosphate hydrate] | depended on the doses |  |  |  | relative efficiency of phosphoester salts in eliciting biomineralization ([1]; compared to βGP and PEP, FIG. 1C): most efficient; biomineralization (Alizarin Red S staining) [2]: did not occur; incubation time until biomineralization occurred at cytoplasmic membrane and cytosol ([3]; MEMα/10% FBS with 2 mM αGP): ≤ 24 h
2 | O=P([O-])([O-])OC(CO)CO.[Na+].[Na+] [βGP, disodium β-glycerophosphate] |  | could mineralize | could not |  | 
3 | [Ca+2] [Ca^2+, calcium ions] | depended on the doses |  |  |  | 
4 | O=P(O)(O)OCC(O)CO (stereo not drawn) [NSC 9231, glycerophosphoric acid] |  |  |  | did not occur | 
5 | NCCC(O)(P(=O)(O)O)P(=O)(O)O [pamidronate] |  |  |  | did not occur | 
6 | O=C1O[C@H]([C@@H](O)CO)C(O)=C1O [Vit. C, Ascorbic acid] |  | No mineralization | No mineralization |  | need of ascorbic acid for biomineralization ([1]; MEMα with or without ascorbic acid, FIG. 1A and FIG. 8): unnecessary or even deleterious
